PMC7367925, “The EU-ToxRisk method documentation, data processing and chemical testing pipeline for the regulatory use of new approach methods” (Archives of Toxicology, 2020)

Tests used:
[1] = design: method as in Nyffeler et al. 2018; conditions: cell culture plastic; ref Nyffeler et al. 2018; cited from earlier work
[2] = system: U-2 OS reporter cell lines battery; experiment: CALUX reporter gene assay battery as a whole; conditions: all CALUX assays, 13 concentrations, 24 h exposure
Pregnane X receptor = molecular target: T1, Pregnane X receptor (Homo sapiens, UniProt O75469); experiment: PXR CALUX; format: cell-based; conditions: 24 h exposure, lowest effect level PC10, means from 3 assay runs
T1 construct: host or cells: U-2 OS
T1 sequence (O75469 1-434): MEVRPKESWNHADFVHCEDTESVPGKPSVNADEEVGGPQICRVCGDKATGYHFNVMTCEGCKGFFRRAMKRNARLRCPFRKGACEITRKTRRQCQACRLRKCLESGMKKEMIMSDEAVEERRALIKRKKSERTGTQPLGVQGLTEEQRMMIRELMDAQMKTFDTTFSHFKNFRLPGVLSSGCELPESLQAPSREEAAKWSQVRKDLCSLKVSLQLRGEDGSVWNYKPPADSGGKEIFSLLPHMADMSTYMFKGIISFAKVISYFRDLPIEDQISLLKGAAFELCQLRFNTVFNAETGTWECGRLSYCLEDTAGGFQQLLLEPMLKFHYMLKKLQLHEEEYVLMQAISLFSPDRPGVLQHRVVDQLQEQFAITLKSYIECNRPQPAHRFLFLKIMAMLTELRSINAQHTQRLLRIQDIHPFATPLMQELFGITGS
Description: (§1) After 24 h, exposure medium was prepared. […] All samples were tested in triplicates. […] Fig. SM_4. […] Fig. SM_4.
(§2) Supplementary Material SM_4
(§3) Overview of CALUX assays.
(§4) This is defined as the concentration of test compound […]
(§5) for an antagonist assay is a PC20.
(§6) PC = positive control. FI = fold induction. PC10: concentration where test compound causes an activation equal to 10% of the maximum effect (positive control). PC20: concentration where test compound causes […]
(§7) FI=1.5: concentration where test
(§8) (A) exemplary graph of concentration- […]
(§9) receptor antagonism assay with PC20 as lowest-effect-level. (C) exemplary graph for assay with 1.5 fold inductionas lowest effect level. 9

Androgen receptor = molecular target: T2, Androgen receptor (Homo sapiens, UniProt P10275); format: cell-based; conditions: 24 h exposure, lowest effect level PC20, reference agonist at EC50, means from 3 assay runs
T2 construct: host or cells: U-2 OS
T2 sequence (P10275 1-920): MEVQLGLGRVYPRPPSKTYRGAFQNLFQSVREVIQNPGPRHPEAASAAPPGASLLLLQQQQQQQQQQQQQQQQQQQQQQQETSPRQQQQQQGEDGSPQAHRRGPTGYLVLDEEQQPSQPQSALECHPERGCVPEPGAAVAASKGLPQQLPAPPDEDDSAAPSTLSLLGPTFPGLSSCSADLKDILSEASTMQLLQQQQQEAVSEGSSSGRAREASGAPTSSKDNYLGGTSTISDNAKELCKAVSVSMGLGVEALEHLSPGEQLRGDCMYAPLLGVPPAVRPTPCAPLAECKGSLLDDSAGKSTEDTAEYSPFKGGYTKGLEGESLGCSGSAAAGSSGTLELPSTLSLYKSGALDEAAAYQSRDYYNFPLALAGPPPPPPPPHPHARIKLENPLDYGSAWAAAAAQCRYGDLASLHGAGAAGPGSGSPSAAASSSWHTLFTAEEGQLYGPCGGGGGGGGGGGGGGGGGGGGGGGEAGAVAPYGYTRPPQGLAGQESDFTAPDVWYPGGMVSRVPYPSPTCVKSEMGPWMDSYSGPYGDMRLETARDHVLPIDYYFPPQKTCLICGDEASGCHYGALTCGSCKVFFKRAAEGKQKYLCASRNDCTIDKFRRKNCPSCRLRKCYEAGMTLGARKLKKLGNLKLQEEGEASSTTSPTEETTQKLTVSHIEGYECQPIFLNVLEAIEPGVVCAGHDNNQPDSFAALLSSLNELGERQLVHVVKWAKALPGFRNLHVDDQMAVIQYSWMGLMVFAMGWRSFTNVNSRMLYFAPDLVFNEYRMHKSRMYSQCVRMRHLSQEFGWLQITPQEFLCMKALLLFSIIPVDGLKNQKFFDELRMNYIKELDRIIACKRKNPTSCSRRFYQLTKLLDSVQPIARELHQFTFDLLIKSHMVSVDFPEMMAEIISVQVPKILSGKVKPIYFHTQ
Description: as §1, §2, §3, §4, §5, §6, §7, §8, §9

Estrogen receptor alpha = molecular target: T3, Estrogen receptor alpha (Homo sapiens, UniProt P03372); experiment: ERa-anti CALUX; format: cell-based; conditions: 24 h exposure, lowest effect level PC20, reference agonist at EC50, means from 3 assay runs
T3 construct: host or cells: U-2 OS
T3 sequence (P03372 whole entry): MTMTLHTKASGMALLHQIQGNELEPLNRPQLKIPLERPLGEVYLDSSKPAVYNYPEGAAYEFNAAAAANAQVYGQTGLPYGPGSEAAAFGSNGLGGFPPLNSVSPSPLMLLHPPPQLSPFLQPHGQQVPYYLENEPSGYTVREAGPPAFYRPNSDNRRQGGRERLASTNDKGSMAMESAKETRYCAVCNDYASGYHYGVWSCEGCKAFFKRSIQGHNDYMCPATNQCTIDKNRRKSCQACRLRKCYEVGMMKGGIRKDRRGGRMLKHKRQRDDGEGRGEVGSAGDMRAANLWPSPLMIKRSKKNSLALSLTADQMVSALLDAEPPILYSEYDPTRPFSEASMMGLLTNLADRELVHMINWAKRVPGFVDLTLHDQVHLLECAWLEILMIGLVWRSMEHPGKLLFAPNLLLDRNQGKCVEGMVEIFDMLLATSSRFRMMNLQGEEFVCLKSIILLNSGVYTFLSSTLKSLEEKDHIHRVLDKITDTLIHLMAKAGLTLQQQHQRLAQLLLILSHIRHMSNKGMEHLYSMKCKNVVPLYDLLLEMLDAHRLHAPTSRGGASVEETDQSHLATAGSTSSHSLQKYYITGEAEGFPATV
Description: as §1
Cell line Endpoint effect Reference compound […]
ERa-anti CALUX Estrogen receptor antagonists PC20 tamoxifen […]
Cytotox CALUX Cytoxicity PC20 tributyltinacetate
as §2, §3, §4, §5, §6, §7, §8, §9

Progesterone receptor = molecular target: T4, Progesterone receptor (Homo sapiens, UniProt P06401); experiment: PR-anti CALUX; format: cell-based; conditions: 24 h exposure, lowest effect level PC20, reference agonist at EC50, means from 3 assay runs
T4 construct: host or cells: U-2 OS
T4 sequence (P06401 1-933): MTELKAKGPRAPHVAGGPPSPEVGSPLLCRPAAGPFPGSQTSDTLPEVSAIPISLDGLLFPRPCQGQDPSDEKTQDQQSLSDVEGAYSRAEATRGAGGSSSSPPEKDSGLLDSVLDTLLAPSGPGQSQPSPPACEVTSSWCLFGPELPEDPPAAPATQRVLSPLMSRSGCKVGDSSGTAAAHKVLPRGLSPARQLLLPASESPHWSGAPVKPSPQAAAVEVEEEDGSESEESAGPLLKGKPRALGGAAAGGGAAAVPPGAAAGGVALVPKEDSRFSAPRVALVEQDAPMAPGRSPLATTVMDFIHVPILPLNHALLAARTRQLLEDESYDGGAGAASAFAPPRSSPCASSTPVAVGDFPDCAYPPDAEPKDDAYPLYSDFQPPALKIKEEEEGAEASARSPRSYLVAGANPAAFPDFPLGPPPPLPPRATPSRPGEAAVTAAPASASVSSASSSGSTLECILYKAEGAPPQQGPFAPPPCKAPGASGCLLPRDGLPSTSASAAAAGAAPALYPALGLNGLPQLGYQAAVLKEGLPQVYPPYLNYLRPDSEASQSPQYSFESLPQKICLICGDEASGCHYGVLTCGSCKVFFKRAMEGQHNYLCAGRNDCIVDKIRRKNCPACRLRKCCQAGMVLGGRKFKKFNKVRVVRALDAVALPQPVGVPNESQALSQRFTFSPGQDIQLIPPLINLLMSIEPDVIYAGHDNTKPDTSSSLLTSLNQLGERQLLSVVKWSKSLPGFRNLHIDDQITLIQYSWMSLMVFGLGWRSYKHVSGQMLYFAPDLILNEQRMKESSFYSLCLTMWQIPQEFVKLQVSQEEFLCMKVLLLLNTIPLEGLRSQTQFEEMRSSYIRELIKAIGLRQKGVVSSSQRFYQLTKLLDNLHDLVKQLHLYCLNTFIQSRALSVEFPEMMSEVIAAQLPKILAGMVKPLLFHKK
Description: as §1, §2, §3, §4, §5, §6, §7, §8, §9

## Clc1cc(Cl)c(-c2cc(Cl)c(Cl)c(Cl)c2Cl)cc1Cl [PCB180, polychlorinated biphenyl 180]
[1]
  fraction of the compound bound to plastic: about one third
[2]
  response profile over the CALUX battery (in words): only activated nuclear hormone receptor related assays
Pregnane X receptor
  PoD PXR - ago: 5.5 -log(M)
Androgen receptor
  PoD AR - anta: 6.1 -log(M)
Estrogen receptor alpha
  PoD Erα - anta: 6.0 -log(M)
Progesterone receptor
  PoD PR - anta: 6.3 -log(M)
